According to PMC6348443 (Journal of Medicinal Chemistry, 2018):
Structures can show the parent of a compound that is named as a salt.

Legend:
KOR [1] = target: T1, KOR (Homo sapiens, UniProt P41145); test: [35S]GTPγS binding assay, CHO-hKOR membranes; format: biochemical; details: for EC50: [35S]GTPγS, CHO human KOR membranes, read-out: KOR EC50; for functional profile at KOR (full/partial agonist): partial agonist <85% of the response to U69,593; for Emax: relative to reference full agonist U69,593, read-out: KOR % stim.
T1 construct: host or cells: CHO (CHO-hKOR)
Method: (§1) Efficacies are presented as percentage stimulation relative to the standard full agonists, [D-Ala^2,N-Me-Phe4,Gly-ol^5]enkephalin (DAMGO for MOR),[53] [D-Pen^2,D-Pen^5]enkephalin (DPDPE for DOR)[54] and N-methyl-2-phenyl-N-[(5R,7S,8S)-7-(pyrrolidin-1-yl)-1-oxaspiro[4.5]dec-8-yl]acetamide (U69,593 for KOR).[55]
(§2) Membranes from CHO cells expressing human opioid receptors were prepared in 50 mM Tris-HCl buffer (pH 7.7) according to a previously described procedure.[64] Cells expressing human opioid receptors grown at confluence were removed from the culture plates by scraping, homogenized in 50 mM Tris buffer (pH 7.7), using a Polytron homogenizer, then centrifuged once and washed by an additional centrifugation at 27 000g for 15 min, at 4 °C. The final pellet was resuspended in Tris buffer and stored at −80 °C until use. Protein content of brain and cell membrane preparation homogenates was determined by the method of Bradford using bovine serum albumin as the standard.[65]
(§3) Binding of [^35S]GTPγS to membranes from CHO cells stably expressing the human opioid receptors was conducted according to the published procedures.[49],[64] Cell membranes (5–10 μg) in 20 mM HEPES, 10 mM MgCl2, and 100 mM NaCl (pH 7.4) were incubated with 0.05 nM [^35S]GTPγS, 10 μM GDP, and various concentrations of test compound in a final volume of 1 mL, for 60 min at 25 °C. Nonspecific binding was determined using 10 μM GTPγS, and the basal binding was determined in the absence of test ligand. Samples are filtered over glass Whatman glass GF/B fiber filters and counted as described for binding assays. All experiments were performed in duplicate and repeated at least three times.
(§4) Data were analyzed and graphically processed using the GraphPad Prism 5.0 Software (GraphPad Prism Software Inc., San Diego, CA). For in vitro assays, inhibition constant (Ki in nM), potency (EC50 in nM), and efficacy (% stimulation) values were determined from concentration–response curves by nonlinear regression analysis. The Ki values were determined by the method of Cheng and Prusoff.[66] In the [^35S]GTPγS binding assays, efficacy was determined relative to the reference full opioid agonists, DAMGO (MOR), DPDPE (DOR), and U69,593 (KOR). In vitro data are presented as mean ± SEM of three to four independent experiments each performed in duplicate. […] Each experimental group included six to seven mice. Data were statistically evaluated using one-way ANOVA with Tukey’s post hoc test for multiple comparisons with significance set at P < 0.05.

male CD1 mice = test: acetic acid-induced writhing assay after sc administration; format: in vivo, mouse; details: for ED50: Mus musculus, 0.5 h, read-out: ED50 (95% CI), mice, sc, inhibition of writhing 30 min after drug administration; for ED50 (95% CI): mice, inhibition of writhing 30 min after drug administration; for increased antinociceptive potency vs comparator: writhing assay, 3a vs 3b, 4a vs 4b, 16b vs 7a (so in the source)
Method: Solutions of test compounds were prepared in sterile physiological 0.9% saline and further diluted to working doses in saline solution. Test compounds or saline (control) were administered by sc route in a volume of 10 μL/1 g of body weight. All doses are expressed in terms of salts. Separate groups of mice received the respective dose of compound, and individual mice were only used once for behavioral testing.
Writhing was induced in male CD1 mice by ip injection of a 0.6% acetic acid aqueous solution as described previously.[48],[62] Groups of mice were administered sc different doses of test compound or saline (control), and 5 min prior to testing (25 min after drug or saline), each animal received an ip injection of acetic acid solution. Each mouse was placed in individual transparent Plexiglas chambers, and the number of writhes was counted during a 10 min observation period. […] For the antagonism study, naloxone methiodide was sc co-administered with the respective opioid agonist, and writhing was assessed as described above.
as §4

DOR [2] = target: T2, DOR (Homo sapiens, UniProt P41143); test: [35S]GTPγS binding assay, CHO-hDOR membranes; format: biochemical; details: for EC50: [35S]GTPγS, CHO human DOR membranes; for Emax: relative to reference full agonist DPDPE, read-out: DOR % stim.
T2 construct: host or cells: CHO (CHO-hDOR)
Method: as §1, §2, §3, §4

DOR [3] = target: T2, DOR; test: competition radioligand binding, CHO cell membranes expressing human DOR, [3H]diprenorphine
Method: as §2
(§5) Rat brain membranes were incubated with either [^3H]DAMGO (1 nM, 45 min, 35 °C) or [^3H][Ile^5,6]deltorphin II (0.5 nM, 45 min, 35 °C) for labeling MOR or DOR receptors, respectively. Guinea-pig brain membranes were incubated with [^3H]U69,593 (1 nM, 30 min, 30 °C) for labeling KOR. Binding assays with CHO cell membranes were conducted at 25 °C for 60 min using [^3H]DAMGO (1 nM) or [^3H]diprenorphine (0.2 nM) for labeling MOR or DOR, respectively. Nonspecific binding was determined using 10 μM naloxone (rodent brain) or 1–10 μM of the unlabeled counterpart of each radioligand (CHO cells). Reactions were terminated by rapid filtration through Whatman glass fiber GF/C filters. Filters were washed three times with 5 mL of ice-cold 50 mM Tris-HCl buffer (pH 7.4) using a Brandel M24R cell harvester (Gaithersburg, MD). Radioactivity retained on the filters was counted by liquid scintillation counting using a Beckman Coulter LS6500 (Beckman Coulter Inc., Fullerton, CA). All binding experiments were performed in duplicate and repeated at least three times.
aDetermined in competition radioligand binding assays using CHO cell membranes expressing
human MOR and DOR. Values represent the mean ± SEM of three independent experiments each

MOR [4] = target: T3, MOR (Homo sapiens, UniProt P35372); test: [35S]GTPγS binding assay, CHO-hMOR membranes; format: biochemical; details: for Emax: read-out: MOR % stim.; for EC50: [35S]GTPγS, CHO human MOR membranes, read-out: MOR EC50; for functional profile at MOR (full/partial agonist): full agonist ≥85% of the response to DAMGO
T3 construct: host or cells: CHO (CHO-hMOR)
Method: as §1, §2, §3, §4

KOR [5] = target: T4, KOR (Cavia porcellus, UniProt P41144); test: competition radioligand binding, guinea-pig brain membranes, [3H]U69,593; details: guinea-pig brain membranes; read-out: opioid receptor binding Ki KOR
T4 construct: Membranes were prepared from Sprague-Dawley rat brains or guinea-pig brains according to the described procedures; tissue Labortierkunde und Laborgenetik, Medizinische Universität Wien; host or cells: guinea-pig brain without cerebella
Method: (§6) Competition binding assays using rat brain (MOR and DOR) and guinea-pig brain (KOR) membranes (Table 1) were performed according to published procedures.[44],[49] […] In addition, we have assessed binding at the human opioid receptors stably transfected in Chinese hamster ovary (CHO) cells (Table S1).
(§7) Membranes were prepared from Sprague-Dawley rat brains or guinea-pig brains according to the described procedures.[44],[45] Brains without cerebella were homogenized on ice in 5 vol/wt of ice-cold 50 mM Tris-HCl buffer (pH 7.4) and diluted in 30 vol/wt of the same buffer. After centrifugation at 40 000g for 20 min at 4 °C, the pellets were resuspended in 30 vol/wt of 50 mM Tris-HCl buffer (pH 7.4) and incubated at 37 °C for 30 min. The centrifugation step described above was repeated, and the final pellets were resuspended in 5 vol/wt of 50 mM Tris-HCl buffer (pH 7.4) containing 0.32 M sucrose and stored at −80 °C until use.
as §5, §4

MOR [6] = target: T5, MOR (Rattus norvegicus, UniProt P33535); test: competition radioligand binding, rat brain membranes, [3H]DAMGO; details: for Ki: rat brain membranes, read-out: opioid receptor binding Ki MOR; for Ki ratio MOR/DOR/KOR: from Ki in rat (MOR, DOR) and guinea-pig (KOR) brain membranes
T5 construct: Membranes were prepared from Sprague-Dawley rat brains or guinea-pig brains according to the described procedures; tissue Labortierkunde und Laborgenetik, Medizinische Universität Wien; host or cells: Sprague-Dawley rat brain without cerebella
Method: as §6, §7, §5, §4

DOR [7] = target: T6, DOR (Rattus norvegicus, UniProt P33533); test: competition radioligand binding, rat brain membranes, [3H][Ile5,6]deltorphin II; details: rat brain membranes; read-out: opioid receptor binding Ki DOR
T6 construct: Membranes were prepared from Sprague-Dawley rat brains or guinea-pig brains according to the described procedures; tissue Labortierkunde und Laborgenetik, Medizinische Universität Wien; host or cells: Sprague-Dawley rat brain without cerebella
Method: as §6, §7, §5, §4

[8] = relative to reference full agonist DAMGO

Compound | EC50 (KOR [1]) [nM] | functional profile at KOR (full/partial agonist) (KOR [1]) | Emax (KOR [1]) [%] | ED50 (male CD1 mice) [mg/kg] | EC50 (DOR [2]) [nM] | Emax (DOR [2]) [%] | Ki (DOR [3]) [nM] | Emax (MOR [4]; [8]) [%] | Ki (KOR [5]) [nM] | Ki (MOR [6]) [nM] | increased agonist potency at DOR vs MOR (DOR [2]; [35S]GTPγS EC50) | Ki (DOR [7]) [nM] | EC50 (MOR [4]) [nM] | functional profile at MOR (full/partial agonist) (MOR [4]) | ED50 (95% CI) (male CD1 mice) | increased antinociceptive potency vs comparator (male CD1 mice) [times] | increase in MOR binding affinity vs comparator (MOR [6]; rat brain, 17b vs 4b, 16a/b vs 7a/b, 22a/b vs 7a, 7b and 9b, 14a vs 14b) | MOR % stim. (MOR [4]; [8]) [%] | Ki ratio MOR/DOR/KOR (MOR [6])
CO[C@@]12CC[C@@H](N[C@@H](C)C(=O)O)[C@@H]3Oc4c(O)ccc5c4[C@@]31CCN(C)[C@@H]2C5 [Compound 3b] | 392 ± 160 | partial agonist | 64 ± 9 | 0.0863 | 5.2 ± 1.7 | 104 ± 6 | 8.43 ± 2.1 | 87 ± 6 | – | – | – | – | – | – | – | – | – | – | –
CO[C@@]12CC[C@@H](N[C@H](C(=O)O)C(C)C)[C@@H]3Oc4c(O)ccc5c4[C@@]31CCN(C)[C@@H]2C5 [Compound 7b, (2S)-2-[(4,5α-Epoxy-3-hydroxy-14β-methoxy-17-methylmorphinan-6β-yl)amino]-3-methylbutyric Acid Dihydrochloride] | 1120 ± 411 | partial agonist | 68 ± 10 | 0.117 | 5.73 ± 2.48 | 96 ± 9 | – | ~80 | 305 ± 39 | 3.04 ± 0.12 | 2–4 times | 3.52 ± 0.04 | 11.7 ± 5.7 | partial agonist | – | – | – | – | –
CO[C@@]12CC[C@@H](N[C@@H](C(=O)O)C(C)C)[C@@H]3Oc4c(O)ccc5c4[C@@]31CCN(C)[C@@H]2C5 [Compound 16b] | 1280 ± 283 | full agonists | 98 ± 16 | < 0.02 | 1.3 ± 0.64 | 99 ± 0.2 | – | 101 | 159 ± 17 | 1.02 ± 0.07 | – | 1.68 ± 0.16 | 2.38 ± 0.77 | full agonist | 14.0 (5.90–33.3) μg/kg | 8 | 2–3 times | 101 ± 5 | –
CO[C@@]12CC[C@H](NCCC(=O)O)[C@@H]3Oc4c(O)ccc5c4[C@@]31CCN(C)[C@@H]2C5 [Compound 20a, 3-[(4,5α-Epoxy-3-hydroxy-14β-methoxy-17-methylmorphinan-6α-yl)amino]propionic Acid Dihydrochloride] | 186 ± 15 | – | 78 ± 9 | 0.0312 | 96.4 ± 8.7 | 97 ± 2 | – | 99 ± 7 | 182 ± 8 | 1.3 ± 0.08 | – | 60 ± 1.9 | 3.52 ± 1.65 | – | – | – | – | – | 1/46/140
CO[C@@]12CC[C@H](N[C@@H](Cc3ccc(O)cc3)C(=O)O)[C@@H]3Oc4c(O)ccc5c4[C@@]31CCN(C)[C@@H]2C5.Cl.Cl [Compound 9a, (2S)-2-[(4,5α-Epoxy-3-hydroxy-14β-methoxy-17-methylmorphinan-6α-yl)amino]-3-(4-hydroxyphenyl)propionic Acid Dihydrochloride] | 100 ± 6 | – | 62 ± 8 | < 0.02 | 1.76 ± 0.22 | 88 ± 6 | – | 92 ± 2 | 39.5 ± 0.2 | 0.83 ± 0.04 | – | 2.18 ± 0.98 | 1.87 ± 0.44 | – | 14.6 (5.15–41.7) μg/kg | – | – | – | –
CO[C@@]12CC[C@H](NCCCC(=O)O)[C@@H]3Oc4c(O)ccc5c4[C@@]31CCN(C)[C@@H]2C5 [Compound 21a] | 2030 ± 253 | – | 104 ± 9 | 0.0419 | 34.4 ± 6.5 | 103 ± 1 | – | 103 ± 4 | 45.6 ± 4.4 | 0.77 ± 0.07 | – | 12.5 ± 0.7 | 2.88 ± 0.82 | – | – | – | – | – | 1/16/59
CO[C@@]12CC[C@H](N[C@@H](C)C(=O)O)[C@@H]3Oc4c(O)ccc5c4[C@@]31CCN(C)[C@@H]2C5 [Compound 3a] | 214 ± 71 | – | 51 ± 3 | < 0.02 | 9.55 ± 4.47 | 93 ± 9 | 26 ± 3.5 | 97 ± 5 | – | – | – | – | – | – | 16.0 (5.45–47.0) μg/kg | 5 | – | – | –
CO[C@@]12CC[C@H](N[C@@H](CC(=O)O)C(=O)O)[C@@H]3Oc4c(O)ccc5c4[C@@]31CCN(C)[C@@H]2C5 [Compound 13a, (2S)-2-[(4,5α-Epoxy-3-hydroxy-14β-methoxy-17-methylmorphinan-6α-yl)-amino]butanedioic Acid Dihydrochloride] | 2990 ± 659 | – | 83 ± 17 | 0.0382 | 10.1 ± 3.8 | 97 ± 3 | – | 90 ± 7 | 50.2 ± 9.2 | 1.36 ± 0.05 | – | 14.6 ± 3.6 | 4.1 ± 1.29 | – | – | – | – | – | 1/11/37
